Laboratory results published in ChEMBL document CHEMBL1201862, “PubChem BioAssay data set” (2004).
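48-hour exposure; five concentrations; linearly interpolated endpoints. At the GI50, growth is halved.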 Calls of active or inactive are those of the source. No stated cut-off is given here; in the data, active = GI50 up to about 1.1 µM and inactive = higher.

How the values were obtained:
Assay in all cases: NCI anticancer screen, dose series, 48 h
A549 = test system: A549
CCRF-CEM = test system: CCRF-CEM
HOP-62 = test system: HOP-62
LOX IMVI = test system: LOX IMVI
Malme-3M = test system: Malme-3M
NCI-H226 = test system: NCI-H226
OVCAR-5 = test system: OVCAR-5
OVCAR-8 = test system: OVCAR-8
RXF 393 = test system: RXF 393
SK-MEL-2 = test system: SK-MEL-2
SW-620 = test system: SW-620
UACC-257 = test system: UACC-257
UACC-62 = test system: UACC-62
UO-31 = test system: UO-31
DLD-1 = test system: DLD-1
HCT-116 = test system: HCT-116
KM-20L2 = test system: KM-20L2
M19-MEL = test system: M19-MEL
OVCAR-3 = test system: OVCAR-3
SF-295 = test system: SF-295

Compound	GI50 (A549)	GI50 (CCRF-CEM)	GI50 (HOP-62)	GI50 (LOX IMVI)	GI50 (Malme-3M)	GI50 (NCI-H226)	GI50 (OVCAR-5)	GI50 (OVCAR-8)	GI50 (RXF 393)	GI50 (SK-MEL-2)	GI50 (SW-620)	GI50 (UACC-257)	GI50 (UACC-62)	GI50 (UO-31)	GI50 (DLD-1)	GI50 (HCT-116)	GI50 (KM-20L2)	GI50 (M19-MEL)	GI50 (OVCAR-3)	GI50 (SF-295)
COc1ccc(-c2cc(O)c3cc(C)cnc3n2)cc1	8.65 µM (inactive)	3.21 µM (inactive)	6.56 µM (inactive)	6.5 µM (inactive)	4.67 µM (inactive)	13 µM (inactive)	93.8 µM (inactive)	4.57 µM (inactive)	7.94 µM (inactive)	3.5 µM (inactive)	3.24 µM (inactive)	5.64 µM (inactive)	4.29 µM (inactive)	7.85 µM (inactive)	–	–	–	–	–	–
COc1ccc(NC(=O)/C(=C/c2ccc(N(CCC#N)CCC#N)cc2)NC(=O)c2cc([N+](=O)[O-])ccc2Cl)cc1	15.5 µM (inactive)	71.6 µM (inactive)	33.2 µM (inactive)	18.4 µM (inactive)	> 100 µM (inactive)	> 100 µM (inactive)	> 100 µM (inactive)	38.9 µM (inactive)	> 100 µM (inactive)	56.1 µM (inactive)	98.6 µM (inactive)	–	13.3 µM (inactive)	9.91 µM (inactive)	15.3 µM (inactive)	48.2 µM (inactive)	36.2 µM (inactive)	56.4 µM (inactive)	94.4 µM (inactive)	19.6 µM (inactive)
CC1=CC2=C(C=O)C(=O)[C@](C)(O)[C@@H](O)C2=CO1	28 µM (inactive)	21.5 µM (inactive)	24.3 µM (inactive)	27.7 µM (inactive)	26.4 µM (inactive)	25.8 µM (inactive)	> 50.8 µM (inactive)	> 64.7 µM (inactive)	16.7 µM (inactive)	24.2 µM (inactive)	29.4 µM (inactive)	33.2 µM (inactive)	23.5 µM (inactive)	16.8 µM (inactive)	28.9 µM (inactive)	22.3 µM (inactive)	1.21 µM (inactive)	22.4 µM (inactive)	1.56 µM (inactive)	35.7 µM (inactive)
Cc1cc(OCC(O)CO)ccc1Cl (centres undefined)	> 100 µM (inactive)	> 100 µM (inactive)	> 100 µM (inactive)	> 100 µM (inactive)	> 100 µM (inactive)	> 100 µM (inactive)	> 100 µM (inactive)	> 100 µM (inactive)	> 100 µM (inactive)	> 100 µM (inactive)	> 100 µM (inactive)	> 100 µM (inactive)	> 100 µM (inactive)	> 100 µM (inactive)	> 100 µM (inactive)	> 100 µM (inactive)	> 100 µM (inactive)	> 100 µM (inactive)	> 100 µM (inactive)	> 100 µM (inactive)
C=CCN1C(=O)/C(=C/c2ccccc2)N=C1SC1OC(COC(=O)c2ccccc2)C(OC(=O)c2ccccc2)C1OC(=O)c1ccccc1 (centres undefined)	–	34.9 µM (inactive)	> 100 µM (inactive)	78.3 µM (inactive)	> 100 µM (inactive)	> 100 µM (inactive)	44.3 µM (inactive)	> 100 µM (inactive)	> 100 µM (inactive)	> 100 µM (inactive)	79.8 µM (inactive)	25.7 µM (inactive)	31.3 µM (inactive)	–	–	–	–	–	> 100 µM (inactive)	> 100 µM (inactive)
COC(=N)C(C)C	> 100 µM (inactive)	> 100 µM (inactive)	> 100 µM (inactive)	> 100 µM (inactive)	> 100 µM (inactive)	> 100 µM (inactive)	> 100 µM (inactive)	–	> 100 µM (inactive)	–	> 100 µM (inactive)	> 100 µM (inactive)	> 100 µM (inactive)	> 100 µM (inactive)	> 100 µM (inactive)	> 100 µM (inactive)	> 100 µM (inactive)	> 100 µM (inactive)	> 100 µM (inactive)	> 100 µM (inactive)
Cc1nc(Nc2nnc(-c3cc([N+](=O)[O-])cc([N+](=O)[O-])c3C)o2)sc1C(=O)CC(=O)Cc1nc2ccc(Cl)cc2nc1O	> 100 µM (inactive)	> 100 µM (inactive)	> 100 µM (inactive)	> 100 µM (inactive)	–	> 100 µM (inactive)	> 100 µM (inactive)	> 100 µM (inactive)	> 100 µM (inactive)	> 100 µM (inactive)	> 100 µM (inactive)	> 100 µM (inactive)	33.6 µM (inactive)	> 100 µM (inactive)	–	> 100 µM (inactive)	> 100 µM (inactive)	> 100 µM (inactive)	–	> 100 µM (inactive)
N#CCCN(CCC#N)c1ccc(/C=C2\N=C(c3cc([N+](=O)[O-])ccc3Cl)N(NC(=O)CC(=O)Nc3ccccc3Cl)C2=O)cc1	> 100 µM (inactive)	> 100 µM (inactive)	> 100 µM (inactive)	> 100 µM (inactive)	> 100 µM (inactive)	16.1 µM (inactive)	26.5 µM (inactive)	> 100 µM (inactive)	> 100 µM (inactive)	> 100 µM (inactive)	> 100 µM (inactive)	–	> 100 µM (inactive)	> 100 µM (inactive)	> 100 µM (inactive)	> 100 µM (inactive)	16.3 µM (inactive)	> 100 µM (inactive)	> 100 µM (inactive)	> 100 µM (inactive)
CCOCC(=O)N(C)c1cccc2c3c(n(C)c12)CCCCC3	> 100 µM (inactive)	> 58.9 µM (inactive)	> 100 µM (inactive)	> 100 µM (inactive)	> 100 µM (inactive)	> 100 µM (inactive)	> 100 µM (inactive)	> 100 µM (inactive)	> 89.7 µM (inactive)	> 100 µM (inactive)	> 100 µM (inactive)	1 µM (active)	> 100 µM (inactive)	–	> 100 µM (inactive)	> 100 µM (inactive)	> 100 µM (inactive)	> 100 µM (inactive)	> 100 µM (inactive)	> 100 µM (inactive)
CC/C(CC(=O)CCC(=O)Nc1ccc(C)c(C)c1)=N\NC(=O)c1cc2ccccc2cc1O	–	5.2 µM (inactive)	26 µM (inactive)	16.1 µM (inactive)	24.8 µM (inactive)	13.4 µM (inactive)	31 µM (inactive)	21.4 µM (inactive)	15.1 µM (inactive)	31 µM (inactive)	30.2 µM (inactive)	45.2 µM (inactive)	14.6 µM (inactive)	26 µM (inactive)	13.4 µM (inactive)	37.6 µM (inactive)	> 10 µM (inactive)	28.8 µM (inactive)	18.6 µM (inactive)	37.2 µM (inactive)
